# Experimental data taken from ChEMBL document CHEMBL1201862, “PubChem BioAssay data set” (2004).
# Activity calls are given as the source filed them.
# Legend:
# [1] = blockers of HIV-1 envelope-mediated cell-cell fusion – cherry-pick, dose response (AID 652057); type: functional, cell-based
# [2] = blockers of HIV-1 ZM109 envelope-driven cell-cell fusion – HeLa effector, CEM target cells, luciferase, cherry-pick, dose response (AID 652058); type: functional, cell-based;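 note: luciferase signal from HIV-1 Env mediated cell-cell fusion of effector and target cells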
# [3] = off-target signal loss in HeLa-CEM21 co-culture – HeLa F-luc CTL cells, cherry-picked, counter-screen for HIV-1 Env fusion inhibitor project, dose response (AID 652040); type: functional, cell-based;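 note: potency for signal decrease marking cytotoxic or nonspecific inhibition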
# [4] = HIV-1 AD8 envelope cell-cell fusion blockers – cherry-pick, dose response (AID 652062); type: functional, cell-based;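 note: luciferase signal from cell-cell fusion driven by HIV-1 clade B AD8 Env; potency is for inhibitors of fusion seen as a drop in luminescence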
# [5] = intracellular Trypanosoma cruzi inhibitors in host cells – cell-based, plate reader, cherry-pick samples, set 3, dose response (AID 651818); type: functional;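 note: compounds incubated with infected cells for about four days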
# [6] = molecular target: Heat shock protein HSP 90-alpha (Homo sapiens, UniProt P07900); type: functional, organism-based
# [7] = microbe, parasite or virus in culture; type: functional; details: Mycobacterium tuberculosis
# [8] = molecular target: Induced myeloid leukemia cell differentiation protein Mcl-1 (Homo sapiens, UniProt Q07820); type: functional
# Chain of Induced myeloid leukemia cell differentiation protein Mcl-1 (Q07820 whole entry): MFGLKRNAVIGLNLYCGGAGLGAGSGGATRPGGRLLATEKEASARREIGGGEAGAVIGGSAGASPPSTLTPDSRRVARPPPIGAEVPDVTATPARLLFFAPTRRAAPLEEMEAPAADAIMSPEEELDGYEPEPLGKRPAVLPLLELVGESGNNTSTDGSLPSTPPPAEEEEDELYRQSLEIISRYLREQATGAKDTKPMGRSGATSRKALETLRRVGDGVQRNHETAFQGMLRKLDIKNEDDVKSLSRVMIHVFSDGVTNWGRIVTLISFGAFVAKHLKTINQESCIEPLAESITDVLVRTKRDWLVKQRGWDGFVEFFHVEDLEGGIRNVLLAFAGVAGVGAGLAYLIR
# [9] = molecular target: FAD-linked sulfhydryl oxidase ALR (Homo sapiens, UniProt P55789); assay: ALR-catalysed DTT oxidation blockers – biochemical, H2O2 detection, luminescence, cherry-pick, dose response (AID 493248)
# Chain of FAD-linked sulfhydryl oxidase ALR (P55789 whole entry): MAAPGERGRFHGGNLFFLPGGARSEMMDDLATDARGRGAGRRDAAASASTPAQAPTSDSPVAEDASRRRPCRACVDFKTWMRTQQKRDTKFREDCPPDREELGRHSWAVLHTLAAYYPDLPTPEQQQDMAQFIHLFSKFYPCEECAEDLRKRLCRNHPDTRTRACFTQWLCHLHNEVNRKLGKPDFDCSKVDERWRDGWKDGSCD
# [10] = molecular target: Genome polyprotein (dengue virus type 2, UniProt P29990); assay: flavivirus cap methylation enzyme inhibition – biochemical, confirmation dose response, primary screen (AID 588689); type: functional
# Chain of Genome polyprotein (P29990 2492-3391 limits assumed): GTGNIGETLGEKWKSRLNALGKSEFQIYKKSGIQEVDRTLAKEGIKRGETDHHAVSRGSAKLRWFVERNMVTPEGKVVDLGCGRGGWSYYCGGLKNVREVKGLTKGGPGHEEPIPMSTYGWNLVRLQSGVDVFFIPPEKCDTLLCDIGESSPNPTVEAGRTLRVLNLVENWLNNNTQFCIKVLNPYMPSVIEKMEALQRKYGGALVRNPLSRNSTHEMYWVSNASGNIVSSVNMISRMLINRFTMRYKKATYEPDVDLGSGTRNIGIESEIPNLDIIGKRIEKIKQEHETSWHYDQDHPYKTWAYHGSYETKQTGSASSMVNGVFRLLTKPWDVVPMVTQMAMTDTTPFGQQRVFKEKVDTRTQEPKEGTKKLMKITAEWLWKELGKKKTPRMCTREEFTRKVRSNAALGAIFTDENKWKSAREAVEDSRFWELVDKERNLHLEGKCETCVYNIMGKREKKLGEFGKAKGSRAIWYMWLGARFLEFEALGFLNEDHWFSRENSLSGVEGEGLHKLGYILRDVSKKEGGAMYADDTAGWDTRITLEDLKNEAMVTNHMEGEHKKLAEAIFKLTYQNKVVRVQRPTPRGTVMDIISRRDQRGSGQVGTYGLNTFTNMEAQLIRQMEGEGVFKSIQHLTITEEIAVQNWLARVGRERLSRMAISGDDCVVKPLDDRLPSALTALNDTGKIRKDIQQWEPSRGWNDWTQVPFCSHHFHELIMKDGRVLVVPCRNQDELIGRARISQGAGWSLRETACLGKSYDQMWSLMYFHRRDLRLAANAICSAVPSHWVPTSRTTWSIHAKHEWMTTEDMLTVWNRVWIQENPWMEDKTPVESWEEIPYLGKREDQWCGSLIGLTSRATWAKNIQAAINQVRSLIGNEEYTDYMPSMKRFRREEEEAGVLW
# [11] = system: H9c2; assay: cells; type: functional, cell-based; details: Rattus norvegicus, H9c2, Myocardium;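 note: confirmatory concentration-response retest of ultra-high-throughput screening hits for modulation of myocardial damage; cell death induced by hydrogen peroxide oxidative stress; compound pretreatment for 60 min then peroxide exposure for 2 h; potency is for protecting the cells against peroxide damage rather than for killing them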
# [12] = cells; type: functional
# [13] = molecular target: T1, Replicative DNA helicase DnaB (Mycobacterium tuberculosis, UniProt P9WMR3); assay: DnaB intein splicing inhibitors, dose response, biochemical, cell-free fluorescence (AID 449749); type: functional
# T1 sequence (P9WMR3 whole entry): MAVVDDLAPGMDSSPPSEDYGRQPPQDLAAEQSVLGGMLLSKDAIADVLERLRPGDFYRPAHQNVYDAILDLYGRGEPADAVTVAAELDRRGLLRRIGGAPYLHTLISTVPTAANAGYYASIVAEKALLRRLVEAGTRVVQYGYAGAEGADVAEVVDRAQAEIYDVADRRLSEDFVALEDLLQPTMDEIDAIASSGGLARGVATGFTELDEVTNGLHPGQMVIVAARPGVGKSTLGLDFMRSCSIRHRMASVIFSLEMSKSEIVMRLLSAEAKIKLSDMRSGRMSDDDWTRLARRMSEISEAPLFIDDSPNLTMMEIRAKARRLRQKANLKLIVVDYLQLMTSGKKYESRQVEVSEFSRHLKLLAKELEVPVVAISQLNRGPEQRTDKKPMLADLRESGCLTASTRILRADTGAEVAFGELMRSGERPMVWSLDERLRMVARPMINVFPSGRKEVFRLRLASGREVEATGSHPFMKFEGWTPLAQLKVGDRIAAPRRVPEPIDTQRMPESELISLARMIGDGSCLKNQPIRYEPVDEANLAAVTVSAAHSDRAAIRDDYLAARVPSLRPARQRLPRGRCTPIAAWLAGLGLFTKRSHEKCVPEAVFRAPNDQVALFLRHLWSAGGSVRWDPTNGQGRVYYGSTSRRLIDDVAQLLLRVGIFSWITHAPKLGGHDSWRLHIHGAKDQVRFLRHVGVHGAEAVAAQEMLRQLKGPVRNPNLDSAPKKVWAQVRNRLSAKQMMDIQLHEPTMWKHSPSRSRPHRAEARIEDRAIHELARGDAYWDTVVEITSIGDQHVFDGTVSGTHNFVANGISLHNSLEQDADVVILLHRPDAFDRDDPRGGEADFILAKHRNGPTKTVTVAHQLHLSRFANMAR
# [14] = molecular target: T2, Protein RecA (Mycobacterium tuberculosis, UniProt P9WHJ3); assay: Fluorescence Cell-Free Homogeneous Dose Retest to Identify Inhibitors of RecA-Intein Splicing Activity. [Related pubchem assays (depositor defined):AID2097, AID2223, AID489010, AID492950]; type: functional
# T2 sequence (P9WHJ3 whole entry): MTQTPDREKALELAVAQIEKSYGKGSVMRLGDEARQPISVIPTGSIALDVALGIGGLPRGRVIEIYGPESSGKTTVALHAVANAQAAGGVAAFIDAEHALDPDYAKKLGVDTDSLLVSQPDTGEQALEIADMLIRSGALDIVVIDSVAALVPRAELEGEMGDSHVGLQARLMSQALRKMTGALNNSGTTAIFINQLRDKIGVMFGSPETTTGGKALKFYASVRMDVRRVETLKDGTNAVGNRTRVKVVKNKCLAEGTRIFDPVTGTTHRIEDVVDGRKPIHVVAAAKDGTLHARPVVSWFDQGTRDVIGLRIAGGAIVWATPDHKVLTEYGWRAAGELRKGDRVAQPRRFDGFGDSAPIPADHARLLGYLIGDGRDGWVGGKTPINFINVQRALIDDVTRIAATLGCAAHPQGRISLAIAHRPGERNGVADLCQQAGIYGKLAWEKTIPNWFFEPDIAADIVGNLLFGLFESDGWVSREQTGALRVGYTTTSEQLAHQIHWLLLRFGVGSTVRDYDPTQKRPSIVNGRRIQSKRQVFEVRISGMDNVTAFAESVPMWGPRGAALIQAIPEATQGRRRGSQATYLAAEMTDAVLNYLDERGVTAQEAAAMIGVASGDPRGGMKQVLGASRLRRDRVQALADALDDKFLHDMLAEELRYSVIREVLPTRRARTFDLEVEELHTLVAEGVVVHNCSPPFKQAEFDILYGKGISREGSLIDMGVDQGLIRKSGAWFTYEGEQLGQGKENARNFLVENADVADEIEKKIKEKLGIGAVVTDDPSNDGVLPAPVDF
# [15] = system: Streptococcus sp. 'group A'; assay: Streptococcus pyogenes SK(-)GAS viability under kanamycin – luminescence, BacTiterGlo, confirmation, counter-screen for streptokinase expression inhibitor project, dose response (AID 1900); type: functional, organism-based
# [16] = system: BJ; assay: BJ-TERT fibroblast viability loss – cell-based, RAS-independent, luminescence, dose response (AID 1933); type: functional; details: Homo sapiens
# [17] = molecular target: T3, Streptokinase A (Streptococcus pyogenes serotype M1, UniProt P10520); assay: viability-normalized secreted streptokinase activity reduction – plasminogen activation absorbance, OD405, dose response (AID 1914); type: functional, Streptococcus pyogenes M1 GAS;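 note: secreted streptokinase activity via plasminogen activation per viability signal from cell pellet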
# T3 sequence (P10520 whole entry): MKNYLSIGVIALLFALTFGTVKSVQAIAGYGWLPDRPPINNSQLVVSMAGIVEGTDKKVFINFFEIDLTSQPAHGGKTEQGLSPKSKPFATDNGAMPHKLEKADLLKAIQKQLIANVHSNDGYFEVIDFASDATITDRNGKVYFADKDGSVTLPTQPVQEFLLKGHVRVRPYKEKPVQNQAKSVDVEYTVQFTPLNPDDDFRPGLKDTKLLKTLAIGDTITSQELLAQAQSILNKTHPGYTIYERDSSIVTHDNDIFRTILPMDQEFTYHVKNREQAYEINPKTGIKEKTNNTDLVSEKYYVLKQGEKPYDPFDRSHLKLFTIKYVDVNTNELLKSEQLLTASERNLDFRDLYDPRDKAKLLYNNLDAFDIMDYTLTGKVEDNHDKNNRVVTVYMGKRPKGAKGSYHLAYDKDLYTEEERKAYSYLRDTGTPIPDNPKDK
# [18] = system: BJ; assay: cells; type: functional, cell-based; details: Homo sapiens
# [19] = system: BJ; assay: BJ-TERT-LT-ST fibroblast viability loss – cell-based, RAS-independent, luminescence, dose response (AID 1935); type: functional; details: Homo sapiens;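 note: BJ fibroblasts immortalized with TERT plus LT and ST oncogenes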
# [20] = DRD fibroblast viability loss – cell-based, non-viral oncogenic, luminescence, dose response (AID 1934); type: functional; details: Homo sapiens
# [21] = system: Streptococcus; assay: GAS UMAA2166 growth inhibition – luminescence, BacTiterGlo, counter-screen for streptokinase expression inhibitor project, dose response (AID 1915); type: functional, organism-based;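 note: potency for reduction of bacterial viability or growth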
# [22] = Luminescence Cell-Based Dose Retest to Confirm Inhibitors of Cancer Stem Cells. [Related pubchem assays (depositor defined):AID2717, AID2721]; type: functional; details: Homo sapiens
# [23] = system: INS1; assay: INS-1E survival protection against cytokine death – cell-based, luminescence, retest, dose response (AID 449756); type: functional; details: Rattus norvegicus;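 note: cell death triggered by IL-1 beta plus TNF-alpha plus IFN-gamma mixture; protective hits raise ATP signal compared with cytokine alone wells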
smiles,measurement,setting,value
CCc1ccc([C@H]2[C@@H]3C(=O)C[C@@H]4C(=O)N(Cc5ccccc5)C(=O)[C@@H]4[C@@H]3CN2S(=O)(=O)c2ccc(C)cc2)cc1,AC50,[1],1.17 µM (active)
same,AC50,[2],1.48 µM (active)
same,AC50,[3],1.8 µM (active)
same,AC50,[4],11.3 µM (active)
Cc1noc(C)c1S(=O)(=O)N(C)C[C@H]1Oc2c(NC(=O)c3ccc(-c4nccs4)cc3)cccc2C(=O)N([C@@H](C)CO)C[C@H]1C,AC50,[5],5.82 µM (active)
N=C(Cc1ccc(Cl)c(Cl)c1)NOC(=O)c1ccc(Br)o1,AC50,[6],8.23 µM (active)
CCOC(=O)c1c(CSc2ccccc2)oc2cc(Br)c(O)c(CN(C)C)c12,AC50,[1],0.907 µM (active)
same,AC50,[2],1.58 µM (active)
same,AC50,[3],1.38 µM (active)
same,AC50,[4],2.46 µM (active)
CC(C(c1ccc2c(c1)OCO2)c1c(N)n(C)c(=O)n(C)c1=O)[N+](=O)[O-] (stereo not drawn),CC50,[7],36.3 µM (active)
C[C@H]1CN([C@@H](C)CO)C(=O)Cc2cc(NS(=O)(=O)c3ccc(Cl)cc3)ccc2O[C@H]1CN(C)Cc1ccccc1,AC50,[5],4.6 µM (active)
C[C@H]1CN([C@@H](C)CO)C(=O)c2cccc(NC(=O)c3ccc(-c4nccs4)cc3)c2O[C@@H]1CN(C)Cc1ccc(C(=O)Nc2ccccc2N)cc1,AC50,[5],2.92 µM (active)
COc1ccc(N/C=C/C(=O)c2sc(-c3ccccc3)nc2C)cc1,CC50,[7],> 40 µM (active)
C[C@H]1CN([C@@H](C)CO)C(=O)Cc2cc(NC(=O)Nc3cccc4ccccc34)ccc2O[C@@H]1CN(C)Cc1ccc(Oc2ccccc2)cc1,AC50,[5],3.12 µM (active)
COc1ccccc1N1C(=O)C2ON(c3ccccc3)C(c3ccc(N(C)C)cc3)C2C1=O (stereo not drawn),IC50,[8],9.03 µM (not active)
CCC(C)(C)NC(=O)C(c1ccccc1F)N(Cc1ccco1)C(=O)c1csnn1 (stereo not drawn),AC50,[1],5 µM (active)
same,AC50,[2],22.6 µM (active)
same,AC50,[3],7.86 µM (active)
same,AC50,[4],36.2 µM (active)
COCCCn1c(SCc2cccc(OC)c2)nc2cc(OC)c(OC)cc2c1=N,CC50,[7],> 40 µM (active)
C[C@H](CO)N1C[C@H](C)[C@H](CN(C)Cc2ccc(C(=O)Nc3ccccc3N)cc2)Oc2ccc(NC(=O)Nc3ccc(C(F)(F)F)cc3)cc2CC1=O,AC50,[5],1.86 µM (active)
CCN(C[C@H]1N[C@@](C)(C(=O)OC)[C@H]2C(=O)N(Cc3ccccc3)C(=O)[C@@H]12)C(=O)Nc1ccc(C)cc1,AC50,[1],0.83 µM (active)
same,AC50,[2],0.959 µM (active)
same,AC50,[3],1.61 µM (active)
same,AC50,[4],3.28 µM (active)
Sc1nnc(-c2ccco2)n1/N=C/C(Cl)=C/c1ccccc1,AC50,[9],0.798 µM (active)
same,IC50,[10],62.7 µM (active)
COc1cc(-c2ccc3oc(-c4ccsc4)cc(=O)c3c2)cc(OC)c1OC,CC50,[7],14.3 µM (active)
same,IC50,[11],> 79 µM (inactive)
CCOC(=O)[C@H]1[C@H]2COc3ccccc3[C@@H]2N2C(=O)c3c(C)cc(C)cc3NC(=O)[C@@]12C,AC50,[1],0.712 µM (active)
same,AC50,[2],1.7 µM (active)
same,AC50,[3],1.04 µM (active)
same,AC50,[4],0.611 µM (active)
O=C1NC(=O)C(=Cc2ccc(Oc3ccc([N+](=O)[O-])cc3)cc2)C(=O)N1,IC50,[12],43 µM (active)
same,AC50,[13],29.5 µM (active)
same,EC50,[14],> 380 µM (inactive)
same,IC50,[10],34.5 µM (active)
CCCCC(CC)CN1C(=O)/C(=C/c2ccncc2)SC1=S (stereo not drawn),EC50,[15],2.59 µM (active)
same,EC50,[16],> 150 µM (not active)
same,EC50,[17],> 150 µM (not active)
same,EC50,[18],> 150 µM (not active)
same,EC50,[19],> 150 µM (not active)
same,EC50,[20],> 150 µM (not active)
same,EC50,[21],9.05 µM (active)
same,AC50,[22],7.84 µM (active)
same,AC50,[23],17.7 µM (active)
C[C@H]1CN([C@@H](C)CO)C(=O)c2cccc(NC(=O)Nc3ccc(C(F)(F)F)cc3)c2O[C@H]1CN(C)Cc1ccc(C(F)(F)F)cc1,AC50,[5],3.22 µM (active)
COc1ccc(S(=O)(=O)Nc2ccc3c(c2)CC(=O)N([C@H](C)CO)C[C@@H](C)[C@@H](CN(C)S(=O)(=O)c2ccc(OC)cc2)O3)cc1,AC50,[5],3.98 µM (active)
CN(C(=O)c1cccc(Nc2ccc(-c3ccc4c(c3)OCCO4)nn2)c1)C1CCCCC1,CC50,[7],28.4 µM (active)
COc1cc(Br)cc(/C=N/NC(=O)c2ccccc2O)c1O,AC50,[5],1.49 µM (active)
CC(C)(C)c1nn(-c2ccccc2)c2nc(O)c(C=O)cc12,AC50,[22],6.32 µM (active)
same,AC50,[6],1.68 µM (active)
